Measurements: BindingDB's records for PubMed 36270088 (n/a, 2022)
pIC50: −log10 of the molar value.

Test: Antagonist activity against CXCR4 in human SUP-T1 cells assessed as inhibition of SDF-1alpha-induced cell migration preincubated with cells for 30 mins followed by incubation with SDF-1alpha for 3 hrs by CellTiter-96 reagent based transwell assay

`CC(C)C[C@@H](N)C(=O)NCC(=O)N[C@H](C)C(=O)N[C@H](CO)C(=O)N[C@H](Cc1c[nH]c2ccccc12)C(=O)N[C@H](Cc1cnc[nH]1)C(=O)N[C@H](CCCNC(=N)N)C(=O)N1CCC[C@@H]1C(=O)N[C@H](CC(=O)O)C(=O)N[C@H](CCCCN)C(=O)N[C@H](CCCCN)C(=O)N[C@H](CCCNC(=N)N)C(=O)N(CCCCCC(=O)O)[C@@H](CCCCN)C(=O)N[C@@H](CCCNC(=N)N)C(=O)N[C@@H](CCCCN)C(=O)N[C@@H](CCC(N)=O)C(=O)N[C@@H](CCCNC(=N)N)C(=O)NCC(=O)N1CCC[C@H]1C(=O)NCC(=O)N[C@@H](CCCNC(=N)N)C(=O)N[C@@H](C)C(=O)N[C@@H](Cc1ccccc1)C(N)=O` showed a pIC50 of 5.22.
Work on `CC(C)C[C@@H](N)C(=O)NCC(=O)N[C@H](C)C(=O)N[C@H](CO)C(=O)N[C@H](Cc1c[nH]c2ccccc12)C(=O)N[C@H](Cc1cnc[nH]1)C(=O)N[C@H](CCCNC(=N)N)C(=O)N1CCC[C@@H]1C(=O)N[C@H](CC(=O)O)C(=O)N[C@H](CCCCN)C(=O)N[C@H](CCCCN)C(=O)N[C@H](CCCNC(=N)N)C(=O)N(CCCCCC(=O)O)[C@H](CCCCN)C(=O)N[C@H](CCCNC(=N)N)C(=O)N[C@H](CCCCN)C(=O)N[C@H](CCC(N)=O)C(=O)N[C@H](CCCNC(=N)N)C(=O)NCC(=O)N1CCC[C@@H]1C(=O)NCC(=O)N[C@H](CCCNC(=N)N)C(=O)N[C@H](C)C(=O)N[C@H](Cc1ccccc1)C(N)=O` yielded a pIC50 of 6.06.
